Assays:
Assay in all cases: Kinobeads competition binding, HL60 cell lysate
Design in all cases: endogenous in cells
Details in all cases: 10 μM free compound
CDK2 = CDK2 (Homo sapiens, UniProt P24941)
Outline: (§1)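 Free compound 10 μM → HL60 lysate; affinity matrix with same compound immobilized, 2 h 4 °C; SDS elution, SDS-PAGE, in-gel trypsin; iTRAQ 114/117 labels vs 0.5% DMSO control; nano-LC-MS/MS, reporter-ion quantitation.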

JAK2 = JAK2 (Homo sapiens, UniProt O60674)
Outline: as §1

JNK2 = JNK2 (Homo sapiens, UniProt P45984)
JNK2, sequence (P45984 whole entry): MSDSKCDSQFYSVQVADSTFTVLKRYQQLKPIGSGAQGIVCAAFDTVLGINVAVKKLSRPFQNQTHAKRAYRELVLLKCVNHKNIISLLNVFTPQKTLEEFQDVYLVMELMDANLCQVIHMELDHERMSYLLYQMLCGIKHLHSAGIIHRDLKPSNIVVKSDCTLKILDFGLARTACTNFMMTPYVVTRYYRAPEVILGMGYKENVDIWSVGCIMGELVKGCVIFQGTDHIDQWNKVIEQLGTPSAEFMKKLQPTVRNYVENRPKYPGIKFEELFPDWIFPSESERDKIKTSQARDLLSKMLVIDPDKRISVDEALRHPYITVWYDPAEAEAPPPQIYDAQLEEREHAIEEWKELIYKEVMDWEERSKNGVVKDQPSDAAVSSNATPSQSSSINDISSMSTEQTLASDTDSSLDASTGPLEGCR
Outline: as §1

MAP3K1 = MAP3K1 (Homo sapiens, UniProt Q13233)
Outline: as §1

MAP3K3 = MAP3K3 (Homo sapiens, UniProt Q99759)
MAP3K3, sequence (Q99759 whole entry): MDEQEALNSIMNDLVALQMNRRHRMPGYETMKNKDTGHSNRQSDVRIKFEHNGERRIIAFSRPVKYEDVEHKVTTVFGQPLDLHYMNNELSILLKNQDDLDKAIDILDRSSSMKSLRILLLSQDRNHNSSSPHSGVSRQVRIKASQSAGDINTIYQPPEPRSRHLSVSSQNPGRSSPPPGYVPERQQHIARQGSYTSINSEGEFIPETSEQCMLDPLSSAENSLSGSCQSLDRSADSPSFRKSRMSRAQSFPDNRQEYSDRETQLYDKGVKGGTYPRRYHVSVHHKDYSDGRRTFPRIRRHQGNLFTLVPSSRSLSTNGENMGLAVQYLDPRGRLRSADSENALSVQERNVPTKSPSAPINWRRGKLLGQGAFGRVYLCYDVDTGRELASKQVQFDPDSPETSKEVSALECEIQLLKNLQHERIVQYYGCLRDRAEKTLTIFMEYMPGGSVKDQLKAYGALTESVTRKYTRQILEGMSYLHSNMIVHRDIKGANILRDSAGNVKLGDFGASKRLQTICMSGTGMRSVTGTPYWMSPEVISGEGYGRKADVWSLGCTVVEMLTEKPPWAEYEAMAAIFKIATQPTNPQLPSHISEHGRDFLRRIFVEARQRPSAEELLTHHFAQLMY
Outline: as §1

MAP3K4 = MAP3K4 (Homo sapiens, UniProt Q9Y6R4)
Outline: as §1

MLK3 = MLK3 (Homo sapiens, UniProt Q16584)
MLK3, sequence (Q16584 whole entry): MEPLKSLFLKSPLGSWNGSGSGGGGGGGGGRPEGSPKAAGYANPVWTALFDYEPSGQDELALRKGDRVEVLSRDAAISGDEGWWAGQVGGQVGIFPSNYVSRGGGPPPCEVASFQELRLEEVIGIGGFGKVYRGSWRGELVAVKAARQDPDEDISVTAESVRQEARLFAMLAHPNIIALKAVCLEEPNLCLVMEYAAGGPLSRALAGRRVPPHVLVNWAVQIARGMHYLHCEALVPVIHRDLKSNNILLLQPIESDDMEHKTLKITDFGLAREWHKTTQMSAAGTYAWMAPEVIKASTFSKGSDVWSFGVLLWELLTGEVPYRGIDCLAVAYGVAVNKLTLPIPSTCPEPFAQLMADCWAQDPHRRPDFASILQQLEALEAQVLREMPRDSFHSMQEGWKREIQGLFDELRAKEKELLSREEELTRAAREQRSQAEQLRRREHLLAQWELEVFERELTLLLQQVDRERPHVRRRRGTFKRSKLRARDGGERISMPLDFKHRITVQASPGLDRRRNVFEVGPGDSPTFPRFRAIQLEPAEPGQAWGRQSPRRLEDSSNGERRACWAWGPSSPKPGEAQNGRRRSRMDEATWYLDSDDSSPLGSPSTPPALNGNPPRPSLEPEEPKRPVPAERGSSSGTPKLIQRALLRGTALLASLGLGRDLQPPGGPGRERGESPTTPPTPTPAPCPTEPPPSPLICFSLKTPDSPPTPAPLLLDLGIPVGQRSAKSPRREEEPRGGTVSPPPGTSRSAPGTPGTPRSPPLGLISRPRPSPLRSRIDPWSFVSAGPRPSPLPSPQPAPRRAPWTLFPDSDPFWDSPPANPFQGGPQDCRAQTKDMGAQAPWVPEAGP
Outline: as §1

MLK4 = MLK4 (Homo sapiens, UniProt Q5TCX8)
MLK4, sequence (Q5TCX8 whole entry): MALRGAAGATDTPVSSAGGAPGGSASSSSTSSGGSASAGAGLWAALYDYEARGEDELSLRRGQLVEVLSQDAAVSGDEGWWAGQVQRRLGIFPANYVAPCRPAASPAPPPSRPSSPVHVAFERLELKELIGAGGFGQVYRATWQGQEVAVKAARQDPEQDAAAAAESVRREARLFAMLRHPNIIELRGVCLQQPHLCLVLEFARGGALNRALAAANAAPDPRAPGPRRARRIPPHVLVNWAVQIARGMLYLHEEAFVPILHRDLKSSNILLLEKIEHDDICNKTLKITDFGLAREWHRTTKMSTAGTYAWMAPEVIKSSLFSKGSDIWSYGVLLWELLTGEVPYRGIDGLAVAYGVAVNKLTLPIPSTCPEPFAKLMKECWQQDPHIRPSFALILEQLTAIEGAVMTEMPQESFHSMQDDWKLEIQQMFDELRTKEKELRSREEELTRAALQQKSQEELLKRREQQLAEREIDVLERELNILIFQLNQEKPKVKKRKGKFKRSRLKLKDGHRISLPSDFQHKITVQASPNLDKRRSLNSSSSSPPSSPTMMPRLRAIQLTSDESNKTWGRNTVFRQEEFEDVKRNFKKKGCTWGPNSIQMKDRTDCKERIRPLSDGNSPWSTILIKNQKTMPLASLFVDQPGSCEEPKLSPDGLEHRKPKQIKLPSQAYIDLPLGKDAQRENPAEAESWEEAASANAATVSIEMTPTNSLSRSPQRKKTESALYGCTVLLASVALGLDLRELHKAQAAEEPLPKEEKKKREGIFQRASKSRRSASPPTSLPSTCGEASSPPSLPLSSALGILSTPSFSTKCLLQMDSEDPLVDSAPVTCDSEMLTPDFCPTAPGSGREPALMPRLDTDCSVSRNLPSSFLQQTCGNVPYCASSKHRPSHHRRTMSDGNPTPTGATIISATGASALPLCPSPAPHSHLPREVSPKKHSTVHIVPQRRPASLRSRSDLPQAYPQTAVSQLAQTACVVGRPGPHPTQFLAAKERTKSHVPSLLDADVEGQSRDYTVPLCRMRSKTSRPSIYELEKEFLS
Outline: as §1

PHKg2 = target: T1, PHKg2 (Homo sapiens, UniProt P15735)
T1 sequence (P15735 1-406): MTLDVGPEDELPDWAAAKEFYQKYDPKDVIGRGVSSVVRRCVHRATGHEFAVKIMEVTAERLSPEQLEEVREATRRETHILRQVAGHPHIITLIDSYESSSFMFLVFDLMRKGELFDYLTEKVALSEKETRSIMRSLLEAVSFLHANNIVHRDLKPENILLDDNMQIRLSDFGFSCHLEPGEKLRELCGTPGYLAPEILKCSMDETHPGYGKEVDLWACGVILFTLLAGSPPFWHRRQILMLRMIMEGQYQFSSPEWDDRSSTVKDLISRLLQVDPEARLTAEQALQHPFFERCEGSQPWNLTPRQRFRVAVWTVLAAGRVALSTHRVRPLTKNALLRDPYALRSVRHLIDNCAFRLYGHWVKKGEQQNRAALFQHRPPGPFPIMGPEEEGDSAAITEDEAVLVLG
Outline: as §1

PIP5K2A = target: T2, PIP5K2A (Homo sapiens, UniProt P48426)
T2 sequence (P48426 1-406): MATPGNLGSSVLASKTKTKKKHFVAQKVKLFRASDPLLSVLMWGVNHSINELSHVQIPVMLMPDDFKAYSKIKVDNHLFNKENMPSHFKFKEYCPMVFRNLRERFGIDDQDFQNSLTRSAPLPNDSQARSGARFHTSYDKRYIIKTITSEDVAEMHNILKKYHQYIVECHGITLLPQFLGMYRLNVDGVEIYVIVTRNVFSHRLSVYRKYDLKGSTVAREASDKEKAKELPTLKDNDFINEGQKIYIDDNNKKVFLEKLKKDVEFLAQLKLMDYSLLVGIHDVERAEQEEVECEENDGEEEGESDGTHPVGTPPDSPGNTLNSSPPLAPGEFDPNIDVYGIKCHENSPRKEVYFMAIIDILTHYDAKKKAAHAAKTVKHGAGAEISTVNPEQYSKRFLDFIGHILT
Outline: as §1

PKN2 = PKN2 (Homo sapiens, UniProt Q16513)
PKN2, sequence (Q16513 whole entry): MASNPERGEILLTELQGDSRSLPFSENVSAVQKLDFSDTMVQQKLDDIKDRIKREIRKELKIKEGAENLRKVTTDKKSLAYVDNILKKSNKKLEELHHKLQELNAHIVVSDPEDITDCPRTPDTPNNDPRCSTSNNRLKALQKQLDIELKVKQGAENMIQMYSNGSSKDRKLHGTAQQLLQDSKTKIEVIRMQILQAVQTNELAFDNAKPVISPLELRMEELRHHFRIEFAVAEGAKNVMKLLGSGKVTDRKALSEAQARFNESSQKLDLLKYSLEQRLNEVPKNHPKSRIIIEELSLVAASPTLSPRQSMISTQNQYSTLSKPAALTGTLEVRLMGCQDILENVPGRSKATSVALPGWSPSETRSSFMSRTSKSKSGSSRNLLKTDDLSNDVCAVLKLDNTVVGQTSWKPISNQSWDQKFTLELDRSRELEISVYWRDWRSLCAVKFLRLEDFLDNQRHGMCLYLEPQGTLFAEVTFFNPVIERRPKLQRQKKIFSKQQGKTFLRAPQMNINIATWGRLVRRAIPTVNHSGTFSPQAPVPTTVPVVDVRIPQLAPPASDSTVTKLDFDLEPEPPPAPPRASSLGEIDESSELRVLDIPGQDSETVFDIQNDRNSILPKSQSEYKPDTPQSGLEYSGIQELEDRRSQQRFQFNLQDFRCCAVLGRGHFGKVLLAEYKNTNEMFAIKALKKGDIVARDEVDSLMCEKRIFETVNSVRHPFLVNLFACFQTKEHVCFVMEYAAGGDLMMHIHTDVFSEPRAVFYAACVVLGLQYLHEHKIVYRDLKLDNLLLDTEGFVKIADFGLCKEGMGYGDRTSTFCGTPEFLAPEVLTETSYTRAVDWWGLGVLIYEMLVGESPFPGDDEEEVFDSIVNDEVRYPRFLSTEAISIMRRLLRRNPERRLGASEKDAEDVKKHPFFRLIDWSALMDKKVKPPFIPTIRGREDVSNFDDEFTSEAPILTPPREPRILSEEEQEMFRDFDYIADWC
Outline: as §1

Wee1 = Wee1 (Homo sapiens, UniProt P30291)
Outline: as §1

JAK2, sequence (O60674 whole entry): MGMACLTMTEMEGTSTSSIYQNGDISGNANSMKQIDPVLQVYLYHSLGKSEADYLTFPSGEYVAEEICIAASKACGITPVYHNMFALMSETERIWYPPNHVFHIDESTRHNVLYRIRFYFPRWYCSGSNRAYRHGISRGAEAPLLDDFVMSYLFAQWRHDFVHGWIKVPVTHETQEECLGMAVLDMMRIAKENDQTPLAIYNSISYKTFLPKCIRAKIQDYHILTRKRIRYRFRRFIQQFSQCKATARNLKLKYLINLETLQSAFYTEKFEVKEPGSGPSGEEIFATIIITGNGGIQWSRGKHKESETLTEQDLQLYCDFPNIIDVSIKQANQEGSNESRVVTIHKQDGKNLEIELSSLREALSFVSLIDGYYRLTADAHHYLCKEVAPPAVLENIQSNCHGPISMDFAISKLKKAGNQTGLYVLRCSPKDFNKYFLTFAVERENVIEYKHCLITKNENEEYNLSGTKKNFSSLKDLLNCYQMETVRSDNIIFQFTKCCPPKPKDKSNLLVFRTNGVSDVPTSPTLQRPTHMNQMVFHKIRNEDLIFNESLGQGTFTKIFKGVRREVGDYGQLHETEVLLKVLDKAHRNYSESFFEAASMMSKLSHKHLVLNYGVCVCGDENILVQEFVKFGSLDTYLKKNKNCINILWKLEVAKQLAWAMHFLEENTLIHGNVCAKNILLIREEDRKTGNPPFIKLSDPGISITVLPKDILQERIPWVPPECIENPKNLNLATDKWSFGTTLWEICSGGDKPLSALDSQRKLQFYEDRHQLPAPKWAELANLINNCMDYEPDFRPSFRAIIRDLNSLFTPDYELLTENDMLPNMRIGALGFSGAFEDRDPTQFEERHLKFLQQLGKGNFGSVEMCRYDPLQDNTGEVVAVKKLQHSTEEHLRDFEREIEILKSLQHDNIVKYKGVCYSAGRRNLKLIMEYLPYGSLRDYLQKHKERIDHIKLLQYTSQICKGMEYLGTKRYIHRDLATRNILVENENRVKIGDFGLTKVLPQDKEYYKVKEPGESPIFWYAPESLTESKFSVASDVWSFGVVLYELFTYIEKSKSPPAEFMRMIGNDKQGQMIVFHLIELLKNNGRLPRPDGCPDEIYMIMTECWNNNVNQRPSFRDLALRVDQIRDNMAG

SMILES: CS(=O)(=O)Nc1ccccc1Nc1nc(Nc2cccc(OCCN)c2)ncc1Cl [CZC31326, N-(2-(2-(3-(2-aminoethoxy)phenylamino)-5-chloropyrimidin-4-ylamino)phenyl)methanesulfonamide]
- Competition % (CDK2): 95.1%
- Competition % (JAK2): 96.8%
- Competition % (JNK2): 87.8%
- inhibition at 10 µM (MAP3K1): 87%
- inhibition at 10 µM (MAP3K3): 97.6%
- inhibition at 10 µM (MAP3K4): 97.2%
- Competition % (MLK3): 96.5%
- inhibition at 10 µM (MLK4): 95%
- inhibition at 10 µM (PHKg2): 96.6%
- inhibition at 10 µM (PIP5K2A): 97.6%
- inhibition at 10 µM (PKN2): 93.9%
- inhibition at 10 µM (Wee1): 98.2%

Reference: patent publication US20120270237A9, “METHODS FOR THE IDENTIFICATION OF KINASE INTERACTING MOLECULES AND FOR THE PURIFICATION OF KINASE PROTEINS” (Cellzone AG, priority 2009, published 2012)
